Data on nine molecules can be found in US12427149B2, “Methods and compositions for the prevention and treatment of hearing loss” (Ting Therapeutics, Inc., priority 2019, dated 2025).

Read-outs that look alike come from different tables or passages of the source. Bounds are passed on as bounds.

One data set has as its system mouse cochlear explants. Kind of data set: tissue or blood. As to conditions: for IC50: Mus musculus; for protection against cisplatin-induced hair cell loss/death in mouse cochlear explants (in words): cisplatin 150 μM. On the procedure:
Dab alone or Dab added 1 h before cisplatin (150 μM) to P3 FVB cochlear explants for 24 h.
Now referring to FIG. 9, testing of a B-Raf/MEK1/2 inhibitor combination in mouse cochlear explant cultures. Compounds alone or combination of the compounds were added 1 h before cisplatin (150 μM) to P3 FVB cochlear explants for 24 h, and number of outer hair cells per 160 μm of middle turn regions of the cochlea were counted by phalloidin staining, mean±SEM, P=*<0.05, P=***<0.001, compared to cisplatin alone by unpaired two-tailed Student's t-test.
Methods of using a zebrafish model system to evaluate small molecules capable of decreasing, inhibiting or preventing sensory hair cell damage or death are provided. Zebrafish are an advantageous animal model system for studying causes and prevention of hearing loss in comparison to mammalian animal model systems. The relative inaccessibility of hair cells in mammalian organisms limits their use as a high throughput model for identifying compounds that would prevent toxin mediated and other forms of hair cell death from occurring. The lateral line neuromast hair cells of zebrafish (Danio rerio) are structurally and functionally similar to mammalian sensory hair cells. […] Compounds alone or compounds added 1 h before cisplatin (150 μM) to P3 FVB cochlear explants for 24 h, and number of outer hair cells per 160 μm of middle turn regions of the cochlea were counted by phalloidin staining, mean±SEM, P=*<0.05, P=**<0.005, ***P<0.0005 compared to cisplatin alone by unpaired two-tailed Student's t-test.
Compounds alone (purple bar) or combination of the compounds were added 1 h before cisplatin (150 μM) to P3 FVB cochlear explants for 24 hrs, and number of outer hair cells per 160 μm of middle turn regions of the cochlea were counted by phalloidin staining, mean±SEM, P=*<0.05, P=**<0.005, compared to cisplatin alone by unpaired two-tailed Student's t-test.

For data set [1], the system named is HEI-OC1 cells. Kind of data set: Protection against cisplatin-induced Caspase-3/7 activity in HEI-OC1 cells (Caspase-Glo 3/7). As to conditions: for IC50: Mus musculus, HEI-OC1; for protection against cisplatin-induced cell death in HEI-OC1 (in words): kinase inhibitor library screen. It counts as cell-based, mouse. As for the experimental part:
A screen of a library composed of 75 kinase inhibitors was conducted to identify inhibitors that protect against cisplatin-induced hair cell loss.

Data set [2] concerns HEI-OC1 cells. Particulars: CELLTITER-GLO.
In another data set the test system is B-RAF, ERK and MEK. The experiment in a line: Western blots of cisplatin activated B-Raf signaling cascade in HEI-OC1 cells. It counts as cell-based, mouse. As to conditions: 50 μM cisplatin, 1 hour; dose dependent. An excerpt: Western blots show representative changes of each signaling molecule upon cisplatin and Dab treatment at specific doses (5B) and times (5A).
In general terms: In western blotting, separated proteins are transferred to a membrane and probed.

Data set [3] deals with zebrafish lateral line neuromast hair cells. The experiment in a line: Protection of zebrafish lateral line neuromast hair cells in vivo against cisplatin. Set-up: species or system zebrafish (Danio rerio). As for the experimental part:
Lateral line neuromasts of zebrafish were stained and number of hair cells per neuromast were counted. Cisplatin (CP): 400 μM. *, **, and ***: P<0.05, 0.01, and 0.001 compared to CP alone.
Protection of zebrafish lateral line neuromast hair cells in vivo. […] After the treatment, animals were transferred to fresh fish water to recover for 1 hour and then fixed and immunostained for GFP and otoferlin. Quantification of the number of hair cells per neuromast after the different treatments represented as mean+/−SEM. Student's t test was performed, *p<0.05, **p<0.01, ***p<0.001, compared versus CP 400 μM. Neuromasts inspected: SO3 (supraorbital line neuromast) and O1-2 (otic line neuromasts) from at least 3 different animals.

The mark [4] stands for this setting: read-out: Mouse cochlear explant IC50.
The mark [5] stands for this setting: Table 1, read-out: HEI-OC1 cell line IC50.
Setting [6] is: read-out: IC50, protection against cisplatin-induced hair cell loss in mouse cochlear explants.

In the case of `CCOc1cc2ncc(C#N)c(Nc3ccc(F)c(Cl)c3)c2cc1NC(=O)/C=C/CN(C)C` [Pelitinib], the “protection of outer hair cells against cisplatin-induced hair cell loss in mouse cochlear explants” value in the data set on mouse cochlear explants (1 hour pre-incubation, N=3) is reported as 49%. In addition, the IC50 with HEI-OC1 cells [1] (cisplatin-Caspase-Glo 3/7, read-out: IC50, protection against cisplatin-induced Caspase-3/7 activity in HEI-OC1 cells) turned out to be 600 nM.

Take `O=C(Nc1cccc(Cl)c1)Nc1ncc(CCNc2ncnc3ccsc23)s1` [SNS-314]: the IC50 in the data set on mouse cochlear explants (setting [4]) is 50 nM; in the data set on HEI-OC1 cells [1] (setting [5]), 7490 nM. Further, the “protection against cisplatin-induced hair cell loss/death in mouse cochlear explants (in words)” value with mouse cochlear explants was “protected”; in the data set with mouse cochlear explants (listed as SNS314) it was “potently protected”. Also, the “protection against cisplatin-induced cell death in HEI-OC1 (in words)” value (from here on “protection … in HEI-OC1 (in words)”) in the data set with HEI-OC1 cells [1] is reported as “potently protected”.

For the molecule `CCCS(=O)(=O)Nc1ccc(F)c(C(=O)c2c[nH]c3ncc(Cl)cc23)c1F` [PLX-4750], the IC50 with mouse cochlear explants (setting [6]) was 200 nM. In the data set with mouse cochlear explants, the “protection against cisplatin-induced hair cell loss/death in mouse cochlear explants (in words)” value was “protected”.

On to `FC(F)(F)c1ccc(/C=C/c2nc(COc3ccc(CCCCn4ccnn4)cc3)co2)cc1` [Mubritinib], for which, in the data set with mouse cochlear explants (FVB, mouse), the “LD50 in mouse cochlear explants” value is greater than 0.5 µM. For the same molecule, the IC50 worked out at 2.5 nM in the data set with mouse cochlear explants (setting [6]); 2 nM with mouse cochlear explants (setting [4]); 39 nM in the data set on HEI-OC1 cells [1] (setting [5]); 4 nM with HEI-OC1 cells [1] (read-out: IC50, protection against cisplatin-induced Caspase-3/7 activity in HEI-OC1 cells). In addition, in the data set with mouse cochlear explants, the “protection against cisplatin-induced hair cell loss/death in mouse cochlear explants (in words)” value is listed as “potently protected”. In the data set on HEI-OC1 cells [2], the “LD50 in HEI-OC1 cells” value is greater than 55 µM. In addition, the “protection … in HEI-OC1 (in words)” value with HEI-OC1 cells [1] is listed as “potently protected”.

Turning to `CC1(COc2ccc3c(c2)ncn3-c2ccc3cccc(N4CCC(N)CC4)c3n2)COC1` [Crenolanib], the IC50 in the data set with mouse cochlear explants (setting [4]) was determined as 350 nM; in the data set on HEI-OC1 cells [1] (setting [5]), 2400 nM. Moreover, the “protection against cisplatin-induced hair cell loss/death in mouse cochlear explants (in words)” value in the data set with mouse cochlear explants (listed as CRENOLANIB) is listed as “potently protected”; with mouse cochlear explants (listed as crenolanib) it was “protected”. Besides, the “protection … in HEI-OC1 (in words)” value in the data set with HEI-OC1 cells [1] is recorded as “potently protected”.

As for `CC(C)(C)c1nc(-c2cccc(NS(=O)(=O)c3c(F)cccc3F)c2F)c(-c2ccnc(N)n2)s1` [Dabrafenib], the “effect on cisplatin-mediated activation of B-RAF, ERK and MEK (in words)” value in the data set with B-RAF, ERK and MEK was “mitigates”. The “LD50 in mouse cochlear explants” value in the data set with mouse cochlear explants (FVB, mouse, 24 h) came out at 13.47 µM. The values for the IC50 in the data set with mouse cochlear explants (setting [6]), in the data set with mouse cochlear explants (setting [4]) and in the data set with HEI-OC1 cells [1] (setting [5]) were 30 nM, 30 nM and 13500 nM, respectively. Also, the “protection against cisplatin-induced hair cell loss/death in mouse cochlear explants (in words)” value in the data set on mouse cochlear explants was “potently protected”. The “Zebrafish cisplatin protection at concentration” value in data set [3] (FIG. 11A) amounted to 0.100 µM. This molecule also yielded a Zebrafish protection in data set [3] (Table 1, protective concentration, cisplatin 400 μM) of 0.100 µM. The “protection … in HEI-OC1 (in words)” value with HEI-OC1 cells [1] was “potently protected”.

As to `CCCS(=O)(=O)Nc1ccc(F)c(C(=O)c2c[nH]c3ncc(-c4ccc(Cl)cc4)cc23)c1F` [Vemurafenib], in the data set on mouse cochlear explants (FVB, mouse, 24 h), the “LD50 in mouse cochlear explants” value is given as “greater than 3 μM”. For the same molecule, the IC50 in the data set on mouse cochlear explants (setting [6]) is roughly 200 nM.

For `CC(=O)Nc1cccc(-n2c(=O)n(C3CC3)c(=O)c3c(Nc4ccc(I)cc4F)n(C)c(=O)c(C)c32)c1` [Trametinib], the “LD50 in mouse cochlear explants” value in the data set with mouse cochlear explants is on record as “greater than 3 μM”. Besides, the IC50 with mouse cochlear explants (setting [6]) stood at 50 nM.

Regarding `Cn1c(Nc2ccc(C(F)(F)F)cc2)nc2cc(Oc3ccnc(-c4ncc(C(F)(F)F)[nH]4)c3)ccc21` [RAF-265], the “LD50 in mouse cochlear explants” value in the data set with mouse cochlear explants (FVB, mouse, 24 h) is on record as “greater than 3 μM”. For the same molecule, in the data set on mouse cochlear explants (setting [6]), the IC50 stood at 20 nM. For the same molecule, the “protection against cisplatin-induced hair cell loss/death in mouse cochlear explants (in words)” value in the data set with mouse cochlear explants is on record as “protected”.
